From patent publication US9783547B2, “Water soluble 4-azapodophyllotoxin analogs” (CENTRE NATIONAL DE LA RECHERCHE SCIENTIFIQUE (CNRS), priority 2014, dated 2017)
pIC50: −log10 of the molar value. Where a name gives a salt, the structure may show the parent alone.

Columns and labels:
[1] = test system: EAhy 926 endothelial cell line; experiment: Endothelial cell morphology evaluation (rounding up); type: cell-based; conditions: Homo sapiens, EA.hy 926; 2 h incubation; rounding up of more than 15% of cells; read-out: Cmarr EA.hy 926: lowest concentration at which cell rounding up was observed
Description: To assess the effects of the compounds on the morphology of endothelial cells, the EAhy 926 endothelial cell line was used, which is derived from the fusion of human umbilical vein endothelial cells (HUVEC) with the permanent human cell line A549 (Edgell et al, Proc. Natl. Acad. Sci. U.S.A., 1983, vol 80, issue 12, 3734-3737). The EAhy 926 cell line is considered as a good representative of native HUVEC because it expresses most of the biochemical markers of parental HUVEC (Bouis et al., Angiogenesis., 2001, 4, 91-102). EAhy 926 cells were grown in DMEM containing 2 mM L-glutamine, 10% foetal bovine serum, 100 U/mL penicillin and 100 μg/mL streptomycin in a humidified atmosphere (37° C., 5% CO2). Exponentially growing EAhy 926 cells were plated onto 96 well plates at 5000 cells/100 μL/well. Twenty-four hours after plating, the medium was aspirated, and 100 μL of medium containing the test compound was added to the well containing the cells (in triplicate) and incubated for 2 h (37° C., 5% CO2). The highest concentration used was 100 μM followed by serial two-fold dilutions down to low nanomolar concentrations, if needed for the most morphologically active compounds. After the 2 h-incubation period, digital photographs were taken of representative centre areas of each well at a magnification of 100× and 200×. The results are presented as the minimum concentration that could elicit the rounding up of more than 15% of cells in a field in order to exclude normal mitotic cells which is less that 15% in control 1% DMSO treated cells. Triplicate concentrations on the same plate were routinely carried out. CA4 was included in the experiments as a positive internal standard.
Compounds of the invention were first tested on EAhy 926 endothelial cells, which are transformed HUVEC (human umbilical vein endothelial cells). These cells undergo a rounding up upon a short 2 hour exposure to vascular disrupting agents, e.g. combretastatin A4.

[2] = test system: B16 melanoma cells; experiment: Cytotoxicity assay for murine cancer cells (MTT); type: cell-based; conditions: Mus musculus, 48 h exposure
Procedure: Murine B16 melanoma cells, Lewis lung carcinoma cells and colon 26 carcinoma cells were grown in DMEM medium containing 2 mM L-glutamine, 10% foetal bovine serum, 100 U/mL penicillin and 100 μg/mL streptomycin (37° C., 5% CO2). […] Exponentially growing cells were plated onto 96-well plates at 5000 cells per well in 100 μL of culture medium. 24 h after plating, 100 μl of medium containing the tested compound at final concentrations ranging from 0.01 to 100 μM were added to the wells (in triplicate) containing the cells, and incubated for 48 h at 37° C. and 5% CO2. After the 48 h exposure period to the test compounds, cell viability was assayed using the MTT (methylthiazoletetrazolium) test (Scudiero et al., Cancer Res. 1988, 48, 4827-4833) and absorbance was read at 562 nm in a microplate reader (BioKinetics Reader, EL340). Appropriate controls with DMEM only and MTT were run to subtract background absorbance.

[3] = test system: tubulin; experiment: Tubulin polymerization inhibition assay (DAPI fluorescence); type: biochemical; conditions: for pIC50: tubulin 1 mg/ml, DAPI, read-out: IPT (inhibition of tubulin polymerization) IC50; for Inhibition of tubulin polymerization at 30 μM: IC50 ND
Description: Fluorescence was then read at the excitation wavelength of 360 nm and emission of 450 nm.

O=C1CCCc2nc3cc4c(cc3c(Nc3ccc5c(c3)OCO5)c21)OCO4 (as salt: hydrochloride) [SGR 355•HCl, 6,7-(Methylenedioxy)-9-(3,4-methylenedioxyphenyl-amino)-3,4-dihydroacridin-1(2H)-one, hydrochloride]
melting point: 260 °C

COc1cccc(Nc2c3c(nc4cc5c(cc24)OCO5)CCCC3=O)c1 (as salt: hydrochloride) [SGR 356•HCl, 6,7-(Methylenedioxy)-9-(3-methoxyphenylamino)-3,4-dihydroacridin-1(2H)-one, hydrochloride]
melting point: 258 °C

COc1cc(Nc2c3c(nc4cc5c(cc24)OCO5)CCC3=O)cc(OC)c1OC (as salt: hydrochloride) [SGR 358•HCl, 6,7-(Methylenedioxy)-9-(3,4,5-trimethoxyphenylamino)-2,3-dihydro-1H-cyclopenta[b]quinolin-1-one, hydrochloride]
melting point: 267 °C

COc1ccc(Nc2c3c(nc4cc5c(cc24)OCO5)CCC3=O)cc1OC (as salt: hydrochloride) [SGR 359•HCl, 6,7-(Methylenedioxy)-9-(3,4-dimethoxyphenylamino)-2,3-dihydro-1H-cyclopenta[b]quinolin-1-one, hydrochloride]
melting point: 256 °C

COc1cc(Nc2c3c(nc4cc5c(cc24)OCCO5)CCCC3=O)cc(OC)c1OC (as salt: hydrochloride) [SGR 360•HCl, 6,7-(Ethylenedioxy)-9-(3,4,5-trimethoxyphenylamino)-3,4-dihydroacridin-1(2H)-one, hydrochloride]
melting point: 266 °C

COc1cc(Nc2c3c(nc4cc5c(cc24)OCCO5)CCCC3=O)cc(OC)c1 (as salt: hydrochloride) [SGR 361•HCl, 6,7-(Ethylenedioxy)-9-(3,5-dimethoxyphenylamino)-3,4-dihydroacridin-1(2H)-one, hydrochloride]
melting point: 254 to 255 °C

COc1cc(Nc2c3c(nc4cc5c(cc24)OCO5)CCCC3=O)cc(OC)c1 (as salt: hydrochloride) [SGR 363•HCl, 6,7-(Methylenedioxy)-9-(3,5-dimethoxyphenylamino)-3,4-dihydroacridin-1(2H)-one, hydrochloride]
melting point: 256 °C

COc1cc(Nc2c3c(nc4cc(C)c(C)cc24)CCCC3=O)cc(OC)c1OC (as salt: hydrochloride) [SGR 364•HCl, 6,7-(Dimethyl)-9-(3,4,5-trimethoxyphenylamino)-3,4-dihydroacridin-1(2H)-one, hydrochloride]
melting point: 216 °C

COc1cc(NC2=C3C(=O)OCC3N(C)c3cc4c(cc32)OCO4)cc(OC)c1OC (stereo not drawn) [SGR 230, reference compound]
minimal effective concentration [1]: 0.12 µM | pIC50 [2]: 4.42 | pIC50 [3]: 5.98

COc1cc(Nc2c3c(nc4cc5c(cc24)OCO5)COC3=O)cc(OC)c1OC [SGR 231, reference compound]
minimal effective concentration [1]: 1.95 µM | pIC50 [2]: 6.40 | pIC50 [3]: 6.38

O=C1CCCc2nc3cc4c(cc3cc21)OCO4 [SGR 304]
minimal effective concentration [1]: > 100 µM | pIC50 [2]: < 4.00 | Inhibition of tubulin polymerization at 30 μM [3]: ND (33% à 30 μM)

O=C1CCCc2c1cc1cc3c(cc1[n+]2[O-])OCO3 [SGR 305]
minimal effective concentration [1]: > 100 µM | pIC50 [2]: < 4.00 | Inhibition of tubulin polymerization at 30 μM [3]: ND (22% à 30 μM)

O=C1CCCc2nc3cc4c(cc3c(Cl)c21)OCO4 [SGR 306]
minimal effective concentration [1]: 12.5 µM | pIC50 [2]: < 4.00 | Inhibition of tubulin polymerization at 30 μM [3]: ND (3% à 30 μM)

COc1cc(Nc2c3c(nc4cc5c(cc24)OCO5)CCCC3O)cc(OC)c1OC (stereo not drawn) [SGR 308]
minimal effective concentration [1]: 25 µM | pIC50 [2]: 4.53 | Inhibition of tubulin polymerization at 30 μM [3]: ND (31% à 30 μM)

COc1cc(Nc2c3c(nc4cc5c(cc24)OCO5)CCC=C3)cc(OC)c1OC [SGR 309]
minimal effective concentration [1]: 3.13 µM | pIC50 [2]: 4.96 | pIC50 [3]: 4.74

O=C1CCCc2nc3cc4c(cc3c(Nc3ccc5c(c3)OCO5)c21)OCO4 [SGR 355•HCl, 6,7-(Methylenedioxy)-9-(3,4-methylenedioxyphenyl-amino)-3,4-dihydroacridin-1(2H)-one, hydrochloride]
minimal effective concentration [1]: 100 µM | pIC50 [2]: 4.76

COc1cccc(Nc2c3c(nc4cc5c(cc24)OCO5)CCCC3=O)c1 [SGR 356•HCl, 6,7-(Methylenedioxy)-9-(3-methoxyphenylamino)-3,4-dihydroacridin-1(2H)-one, hydrochloride]
minimal effective concentration [1]: 50 µM | pIC50 [2]: < 4.00

COc1cc(CNc2c3c(nc4cc5c(cc24)OCO5)CCCC3=O)cc(OC)c1OC.Cl [SGR 357•HCl]
minimal effective concentration [1]: 25 µM | pIC50 [2]: 5.05 | Inhibition of tubulin polymerization at 30 μM [3]: ND (18% à 30 μM)

COc1cc(Nc2c3c(nc4cc5c(cc24)OCO5)CCC3=O)cc(OC)c1OC [SGR 358•HCl, 6,7-(Methylenedioxy)-9-(3,4,5-trimethoxyphenylamino)-2,3-dihydro-1H-cyclopenta[b]quinolin-1-one, hydrochloride]
minimal effective concentration [1]: 0.25 µM | pIC50 [2]: 6.00

COc1ccc(Nc2c3c(nc4cc5c(cc24)OCO5)CCC3=O)cc1OC [SGR 359•HCl, 6,7-(Methylenedioxy)-9-(3,4-dimethoxyphenylamino)-2,3-dihydro-1H-cyclopenta[b]quinolin-1-one, hydrochloride]
minimal effective concentration [1]: 25 µM | pIC50 [2]: 4.76

COc1cc(Nc2c3c(nc4cc5c(cc24)OCCO5)CCCC3=O)cc(OC)c1OC [SGR 360•HCl, 6,7-(Ethylenedioxy)-9-(3,4,5-trimethoxyphenylamino)-3,4-dihydroacridin-1(2H)-one, hydrochloride]
minimal effective concentration [1]: 0.06 µM | pIC50 [2]: 5.09

COc1cc(Nc2c3c(nc4cc5c(cc24)OCO5)CCCC3=O)cc(OC)c1 [SGR 363•HCl, 6,7-(Methylenedioxy)-9-(3,5-dimethoxyphenylamino)-3,4-dihydroacridin-1(2H)-one, hydrochloride]
minimal effective concentration [1]: 0.06 µM | pIC50 [2]: 5.85

COc1cc(Nc2c3c(nc4cc(C)c(C)cc24)CCCC3=O)cc(OC)c1OC [SGR 364•HCl, 6,7-(Dimethyl)-9-(3,4,5-trimethoxyphenylamino)-3,4-dihydroacridin-1(2H)-one, hydrochloride]
minimal effective concentration [1]: 6.25 µM | pIC50 [2]: 4.90

COc1cc([C@@H]2c3cc4c(cc3[C@H](O)[C@H]3COC(=O)[C@H]23)OCO4)cc(OC)c1OC [podophyllotoxin]
pIC50 [3]: […]
